Patent US9326987B2 (priority 2010, dated 2016)
Where a name gives a salt, the structure may show the parent alone. Read-outs that look alike come from different tables or passages of the source.

Tests used:
[1] = tested on: A/Victoria/3/75 (H3N2); experiment: Influenza virus cytoprotection assay in A549 cells (MTS); type: cell-based; conditions: for IC50: 168 h, reduction in viral cytopathic effects, 7 days
[2] = tested on: A/PR/8/34 (H1N1); experiment: as above; type: cell-based; conditions: for inhibition at 10 µM: 10 μM compound, read-out: inhibition observed at 10 μM; for IC50: 168 h, reduction in viral cytopathic effects, 7 days
[3] = tested on: A549 cells; conditions: concentration resulting in 50% cell death, absence of virus; for CC50: read-out: TC50
[4] = tested on: A/Hong Kong/8/68 (H3N2); experiment: Influenza virus cytoprotection assay in A549 cells (MTS); type: cell-based; conditions: for inhibition at 10 µM: 10 μM compound, read-out: inhibition observed at 10 μM; for IC50: 168 h, reduction in viral cytopathic effects, 7 days
[5] = tested on: B/Russia/69; experiment: as above; type: cell-based; conditions: unidentified influenza virus, A549, 168 h
[6] = tested on: B/Lee/40; experiment: as above; type: cell-based; conditions: A549, 168 h
[7] = tested on: A/WS/33 (H1N1); experiment: as above; type: cell-based; conditions: for inhibition at 10 µM: 10 μM compound, read-out: inhibition observed at 10 μM; for IC50: 168 h, reduction in viral cytopathic effects, 7 days
[8] = in vitro; conditions: human

SMILES	IC50 [1]	inhibition at 10 µM [2]	CC50 ([3]; A/PR/8/34 (H1N1))	CC50 ([3]; A/Victoria/3/75 (H3N2))	CC50 ([3]; A/WS/33 (H1N1))	CC50 ([3]; B/Lee/40)	CC50 ([3]; B/Russia/69)	inhibition at 10 µM [4]	IC50 [5]	IC50 [6]	inhibition at 10 µM [7]	CC50 [8]	IC50 [2]	IC50 [4]	IC50 [7]	other results
CC(C)N1CCN(Cc2cnc(-c3cc(-c4cccc5[nH]ccc45)cc4[nH]ncc34)o2)CC1 [Compound A, 6-(1H-indol-4-yl)-4-(5-{[4-(1-methylethyl)-1-piperazinyl]methyl}-1,3-oxazol-2-yl)-1H-indazole hydrochloride]	9.19 µM	15.9%	> 10 µM	> 10 µM	> 10 µM	> 10 µM	> 10 µM	40.4%	3.53 µM	4.61 µM	21.4%	> 10 µM				
COc1ncc(-c2cc(-c3ncc(CN4C[C@@H](C)O[C@@H](C)C4)o3)c3cn[nH]c3c2)cc1NS(C)(=O)=O [Compound B, N-[5-[4-(5-{[(2R,6S)-2,6-dimethyl-4-morpholinyl]methyl}-1,3-oxazol-2-yl)-1H-indazol-6-yl]-2-(methyloxy)-3-pyridinyl]methanesulfonamide]		35%	> 10 µM	> 10 µM	> 10 µM	> 10 µM	> 10 µM	13.7%	4.65 µM	7.94 µM	0.1%	> 10 µM				inhibition at 10 µM ([1]; 10 μM compound, read-out: inhibition observed at 10 μM): 11.4%
NC(=O)c1ncn([C@@H]2O[C@H](CO)[C@@H](O)[C@H]2O)n1 [Ribavirin, ribavirin]	6.01 µg/mL								4.75 µg/mL	6.65 µg/mL			7.35 µg/mL	6.59 µg/mL	7.34 µg/mL	TC50 ([3]; A/PR/8/34 (H1N1)): >100 µg/mL; TC50 ([3]; A/Victoria/3/75 (H3N2)): >100 µg/mL; TC50 ([3]; A/WS/33 (H1N1)): >100 µg/mL; TC50 ([3]; B/Lee/40): >100 µg/mL; TC50 ([3]; B/Russia/69): >100 µg/mL; TC50 ([3]; table row A/Hong Kong/8/68 (H3N2)): >100 µg/mL
CC(=O)N[C@H]1[C@H]([C@H](O)[C@H](O)CO)OC(C(=O)O)=C[C@@H]1N=C(N)N [Zanamivir, zinamavir]	0.832 µM		> 100 µM	> 100 µM	> 100 µM	> 100 µM	> 100 µM		3.25 µM	2.52 µM		> 100 µM	[…]	0.871 µM	0.743 µM	
